Assay results: US5731452A, “7-thiaprostaglandins and method of production thereof” (Teijin Limited, priority 1994, dated 1998)

System: cell migration induced by MCP-1 in human promonocytic leukemia cell line, THP-1
Test: Activity for inhibiting cell migration induced by MCP-1 (THP-1 cells)
Type: cell-based
Settings: 20 ng/ml recombinant human MCP-1, 37° C., two hours
Description: The cell migration induced by the monocyte chemoattractant protein MCP-1/MCAF was measured for the purpose of investigating the activity of the tested compounds shown in Table 1 in inhibiting cell migration by the following manner in accordance with the method of Falk et al. (J. Immunol. Methods, 33, 239-247 (1980)) using human promonocytic leukemia cell line, THP-1 (ATCC TIB203). That is, THP-1 cells diluted to 2×10^6 /ml by 10% fetal calf serum: FCS-containing RPMI-1640 medium (made by Flow Laboratories) were added to the upper chamber (200 μl) of the 96-well microchemotaxis chamber (made by Neuroprobe Inc.) while recombinant human MCP-1 (made by Peprotech Co.) diluted by the same medium to a final concentration of 20 ng/ml was added to the bottom chamber (35 μl). A polycarbonate filter (pore size of 5 μm, PVP-free, made by Neuroprobe Co) was affixed between the two. Incubation was performed at 37° C. in the presence of 5% CO2 for two hours. The filter was taken out, then the cells migrating to the bottom surface of the filter were fixed and stained by a Diff Quick solution (made by International Reagents Co.), then were measured by a plate reader (made by Molecular Device Co.) at a measurement wavelength of 550 nm. The mean value of three wells was determined and used as the indicator of the number of the migrating cells. At this time, the text compounds were added at various concentrations along with the THP-1 cells to the top chambers and the activity in inhibiting cell migration was determined. The percent of inhibition of cell migration was found by dividing the {(number of migrating cells caused by the MCP-1 added to the bottom chamber in the case of the test compound being added to the top chamber)--(number of migrating cells in the case of no test compound being added to the top chamber and no MCP-1 being added to the bottom chamber)} by the {(number of migrating cells caused by the MCP-1 added to the bottom chamber in the case of no test compound being added to the top chamber)--(number of migrating cells in the case of no test compound being added to the top chamber and no MCP-1 being added to the bottom chamber)}.

IC50	SMILES
100 nM	CCCC(=O)OC1=C(SCCCCCC(=O)OC)[C@@H](/C=C/C(O)C(C)(C)c2ccccc2)[C@H](O)C1 (some centres unmarked) [drawing 135]
0.021 nM	CCCC(=O)OC1=C(SCCCCCC(=O)OC)[C@@H](/C=C/C(O)C(C)c2ccccc2)[C@H](O)C1 (some centres unmarked) [drawing 140]
> 5000 nM	CCCC(=O)OC1=C(SCCCCCC(=O)OC)[C@@H](/C=C/C(O)C(c2ccccc2)c2ccccc2)[C@H](O)C1 (some centres unmarked) [drawing 143]
> 10000 nM	CCCC(=O)OC1=C(SCCCCCC(=O)OC)[C@@H](/C=C/C(O)Cc2ccc(C)cc2)[C@H](O)C1 (some centres unmarked) [drawing 148]
100 nM	CCCC(=O)OC1=C(SCCCCCC(=O)OC)[C@@H](/C=C/C(O)Cc2ccc(C)cc2)[C@H](O)C1 (some centres unmarked) [drawing 149]
0.08 nM	CCCC(=O)OC1=C(SCCCCCC(=O)OC)[C@@H](/C=C/C(O)Cc2ccsc2)[C@H](O)C1 (some centres unmarked) [drawing 152]

The next lines start with the molecule.

SMILES	IC50
CCCC(=O)OC1=C(SCCCCCC(=O)OC)[C@@H](/C=C/C(O)C(C)(C)c2ccccc2)[C@H](O)C1 (some centres unmarked) [drawing 136]	13 nM
CCCC(=O)OC1=C(SCCCCCC(=O)OC)[C@@H](/C=C/C(O)C(C)c2ccccc2)[C@H](O)C1 (some centres unmarked) [drawing 139]	6 nM
CCCC(=O)OC1=C(SCCCCCC(=O)OC)[C@@H](/C=C/C(O)C(c2ccccc2)c2ccccc2)[C@H](O)C1 (some centres unmarked) [drawing 142]	1300 nM
CCCC(=O)OC1=C(SCCCCCC(=O)OC)[C@@H](/C=C/C(O)CCCc2ccccc2)[C@H](O)C1 (some centres unmarked) [drawing 146]	300 nM
CCCC(=O)OC1=C(SCCCCCC(=O)OC)[C@@H](/C=C/C(O)CCCc2ccccc2)[C@H](O)C1 (some centres unmarked) [drawing 147]	4.3 nM
CCCC(=O)OC1=C(SCCCCCC(=O)OC)[C@@H](/C=C/C(O)Cc2ccsc2)[C@H](O)C1 (some centres unmarked) [drawing 151]	90 nM
CCCC(=O)OC1=C(SCCCCCC(=O)OC)[C@@H](/C=C/C(O)Cc2cccc(C)c2)[C@H](O)C1 (some centres unmarked) [drawing 153]	600 nM

Same assay, conditions: Homo sapiens, THP-1, 2 h, 20 ng/ml recombinant human MCP-1, 37° C., two hours

IC50	SMILES
1.7 nM	CCCCC(C)(O)C/C=C/[C@@H]1C(SCCCCCC(=O)OC)=C(OC(=O)CCC)C[C@H]1O (some centres unmarked)
2.5 nM	CCCC(=O)OC1=C(SCCCCCC(=O)OC)[C@@H](/C=C/[C@@H](O)C2CCCCC2)[C@H](O)C1 [drawing 123]
3 nM	CCCC(=O)OC1=C(SCCCCCC(=O)OC)[C@@H](/C=C/C(O)[C@H](C)c2ccccc2)[C@H](O)C1 (some centres unmarked) [drawing 137]

More lines, now with the values behind:

SMILES	IC50
CCCCC[C@H](O)/C=C/[C@@H]1C(SCCCCCC(=O)OC)=C(OC(=O)[C@H](Cc2ccccc2)NC(=O)OCc2ccccc2)C[C@H]1O	0.22 nM
CCCC(=O)OC1=C(SCCCCCC(=O)OC)[C@@H](/C=C/C(O)C2CCCCC2)[C@H](O)C1 (some centres unmarked)	100 nM
CCCC(=O)OC1=C(SCCCCCC(=O)OC)[C@@H](/C=C/C(O)CCc2ccccc2)[C@H](O)C1 (some centres unmarked)	8.5 nM
CCCC(=O)OC1=C(SCCCCCC(=O)OC)[C@@H](/C=C/[C@@H](O)CCOCC)[C@H](O)C1	120 nM
CCCCCC(O)CC[C@@H]1C(SCCCCCC(=O)OC)=C(OC(=O)CCC)C[C@H]1O (some centres unmarked)	0.14 nM
CCCC(=O)OC1=C(SCCCCCC(=O)OC)[C@@H](/C=C/C(O)c2ccccc2)[C@H](O)C1 (some centres unmarked)	> 1000 nM
CCCC(=O)OC1=C(SCCCCCC(=O)OC)[C@@H](/C=C/[C@@H](O)Cc2ccccc2)[C@H](O)C1	1.1 nM
CCCCC(C)C[C@H](O)/C=C/[C@@H]1C(SCCC/C=C/C(=O)OC)=C(OC(=O)CCC)C[C@H]1O (some centres unmarked)	6 nM
CCCC(=O)OC1=C(SCCCCCC(=O)OC)[C@@H](/C=C/[C@@H](O)C2CCCC2)[C@H](O)C1 [drawing 121]	0.51 nM
CCCCC[C@H](O)/C=C/[C@@H]1C(SCCCCCC(=O)O)=C(OC(=O)CCC)C[C@H]1O [drawing 126]	0.81 nM
CCCCC(C)C[C@H](O)/C=C/[C@@H]1C(SCCCCCC(=O)OC)=C(OC(=O)c2ccccc2)C[C@H]1O (some centres unmarked) [drawing 129]	810 nM
CCCC(=O)OC1=C(SCCCCCC(=O)OC)[C@@H](/C=C/C(O)Cc2ccccc2)[C@H](O)C1 (some centres unmarked) [drawing 131]	8.3 nM
CCCCC(C)C[C@H](O)/C=C/[C@@H]1C(SCCCOCC(=O)OC)=C(OC(=O)CCC)C[C@H]1O (some centres unmarked) [drawing 141]	2.1 nM
